Experimental data taken from ChEMBL document CHEMBL1614632, “Trend analysis of a database of intravenous pharmacokinetic parameters in humans for 670 drug compounds” (Drug Metab Dispos, 2008).
Numbered stars: 1 amine (or outer) side, 2 acyl side, 3 side chain; on linkers, the order of the positions; unused ones are H or OH. Bridge positions count the residues as written; N and C are the ends. Square brackets hold non-standard residues; d marks the D form. Peptide text beside a SMILES is read from it. * marks the point of attachment. hTyr(3S-OH,4S-OH,3'-OSO3H) = N[C@H](C(=O)O)[C@H](O)[C@@H](O)c1ccc(O)c(OS(=O)(=O)O)c1; Orn(4R-OH,5R-OH) = O=C([C@H](C[C@@H](O)[C@@H](O)N[*:3])N[*:1])[*:2]; Pro(3S-OH,4S-Me) = C[C@H]1CN[C@H](C(=O)O)[C@H]1O; X1 = CCCCCOc1ccc(-c2cc(-c3ccc(C(=O)*)cc3)no2)cc1; Gln(3R-OH) = NC(=O)C[C@@H](O)[C@H](N)C(=O)O; Hyp = O=C(O)[C@@H]1C[C@@H](O)CN1

Legend:
clinical [1] = conditions: human, in vivo, iv, Vdss
clinical [2] = conditions: human, in vivo, iv
clinical [3] = conditions: human, in vivo, iv; remark: listed apart in the source
clinical [4] = conditions: human, in vivo, iv, CL
clinical [5] = conditions: human, in vivo, iv, t1/2

Compound	Vd (clinical [1])	fraction unbound (clinical [2])	MRT (clinical [3])	clearance (clinical [4])	half-life (clinical [5])
CCC[C@@H]1C[C@@H](C(=O)N[C@@H]([C@H]2O[C@H](SC)[C@H](O)[C@@H](O)[C@H]2O)[C@@H](C)O)N(C)C1 [LINCOMYCIN]	1 L/kg	0.14	7.5 h	2.1 mL/min/kg	336 min
CC(C)NCC(O)c1ccc(O)c(O)c1 (stereo not given) [ISOPROTERENOL]	1.5 L/kg	0.71	0.43 h	56 mL/min/kg	24.6 min
CC(=O)Nc1nnc(S(N)(=O)=O)s1 [ACETAZOLAMIDE]	0.37 L/kg	0.04	9.5 h	0.65 mL/min/kg	780 min
COc1cc2c3cc1Oc1cc(ccc1O)C[C@@H]1c4c(cc(OC)c(O)c4Oc4ccc(cc4)C[C@@H]3N(C)CC2)CC[N+]1(C)C.[Cl-]	0.45 L/kg	0.58	2.2 h	3.4 mL/min/kg	120 min
CCN(C)C(=O)Oc1cccc([C@H](C)N(C)C)c1 [RIVASTIGMINE]	1.3 L/kg	0.6	1.9 h	12 mL/min/kg	84 min
CC(=O)N[C@@H](CS)C(=O)O [ACETYLCYSTEINE]	0.55 L/kg	0.17	3 h	3.1 mL/min/kg	330 min
Cc1ccc(C(=O)Nc2ccc(S(=O)(=O)O)c3cc(S(=O)(=O)O)cc(S(=O)(=O)O)c23)cc1NC(=O)c1cccc(NC(=O)Nc2cccc(C(=O)Nc3cc(C(=O)Nc4ccc(S(=O)(=O)O)c5cc(S(=O)(=O)O)cc(S(=O)(=O)O)c45)ccc3C)c2)c1 [SURAMIN]	0.54 L/kg	0.001	1400 h	0.0057 mL/min/kg	72000 min
CCC(C)(C)NCC(O)COc1ccccc1C(=O)CCc1ccccc1 (stereo not given) [DIPRAFENONE]	1.2 L/kg	0.017	1.9 h	11 mL/min/kg	90 min
CC(=O)Nc1c(I)c(C(=O)O)c(I)c(N(C)C(C)=O)c1I [METRIZOIC ACID]	0.17 L/kg	1	1 h	2.7 mL/min/kg	78 min
Cc1ncsc1CCCl [CLOMETHIAZOLE]	6.6 L/kg	0.36	3.3 h	33 mL/min/kg	270 min
CCCCCOc1ccc(-c2cc(-c3ccc(C(=O)N[C@H]4C[C@@H](O)[C@@H](O)NC(=O)[C@@H]5[C@@H](O)[C@@H](C)CN5C(=O)[C@H]([C@H](O)CC(N)=O)NC(=O)[C@H]([C@H](O)[C@@H](O)c5ccc(O)c(OS(=O)(=O)O)c5)NC(=O)[C@@H]5C[C@@H](O)CN5C(=O)[C@H]([C@@H](C)O)NC4=O)cc3)no2)cc1 [MICAFUNGIN] (X1-[Orn(4R-OH,5R-OH)]T[Hyp][hTyr(3S-OH,4S-OH,3'-OSO3H)][Gln(3R-OH)][Pro(3S-OH,4S-Me)]; lactam 1-C)	0.21 L/kg	0.0023	21 h	0.17 mL/min/kg	960 min
CC(=O)OCC1=C(C(=O)O)N2C(=O)[C@@H](NC(=O)CSc3ccncc3)[C@H]2SC1 [CEPHAPIRIN]	0.13 L/kg	0.55	0.8 h	2.7 mL/min/kg	72 min
OCCN1CCN(CCCN2c3ccccc3Sc3ccc(Cl)cc32)CC1 [PERPHENAZINE]	18 L/kg	0.07	11 h	27 mL/min/kg	564 min
C=CCC1(C(C)C#CCC)C(=O)N=C(O)N(C)C1=O (stereo not given) [METHOHEXITAL]	1.1 L/kg	0.27	1.5 h	12 mL/min/kg	96 min
COc1cc([C@@H]2c3cc4c(cc3C(OC3OC5COC(C)OC5C(O)C3N)C3COC(=O)[C@@H]32)OCO4)cc(OC)c1O (stereo not given in full) [NK-611]	0.3 L/kg	0.013	17 h	0.4 mL/min/kg	840 min
CN(C)[C@@H]1C(O)=C(C(N)=O)C(=O)[C@@]2(O)C(O)=C3C(=O)c4c(O)cccc4[C@@](C)(O)[C@H]3[C@H](O)[C@@H]12 [OXYTETRACYCLINE]	1.7 L/kg	0.9	12 h	2 mL/min/kg	600 min

Compound	Vd (clinical [1])	fraction unbound (clinical [2])	MRT (clinical [3])	clearance (clinical [4])	half-life (clinical [5])
C#C[C@]1(O)C=C[C@H]2[C@@H]3CCC4=CC(=O)CC[C@@H]4[C@H]3CC[C@@]21CC [GESTODENE]	0.46 L/kg	0.023	9.6 h	0.8 mL/min/kg	600 min
CCCC(C)C1(CC)C(=O)NC(=S)NC1=O (stereo not given) [THIOPENTAL]	1.2 L/kg	0.14	2.4 h	8.2 mL/min/kg	120 min
CC(=O)O[C@H]1C[C@@H]2CC[C@@H]3[C@H](CC[C@@]4(C)[C@H]3C[C@H]([N+]3(C)CCCCC3)[C@@H]4OC(C)=O)[C@@]2(C)C[C@@H]1N1CCCCC1.[Br-] [VECURONIUM BROMIDE]	0.3 L/kg	0.25	1.1 h	4.5 mL/min/kg	84 min
Cc1cccc([C@H](C)c2cnc[nH]2)c1C [DEXMEDETOMIDINE]	1.6 L/kg	0.06	2.5 h	11 mL/min/kg	132 min
COc1ccccc1Oc1c(NS(=O)(=O)c2ccc(C(C)(C)C)cc2)nc(-c2ncccn2)nc1OCCO [BOSENTAN]	0.29 L/kg	0.037	2.3 h	2.1 mL/min/kg	246 min
Nc1nc(Cl)nc2c1ncn2[C@H]1C[C@H](O)[C@@H](CO)O1 [CLADRIBINE]	7.7 L/kg	0.79	9.2 h	14 mL/min/kg	960 min
CN1C(=O)NC(=O)C(C)(C2=CCCCC2)C1=O (stereo not given) [HEXOBARBITAL]	1.1 L/kg	0.53	5.4 h	3.4 mL/min/kg	294 min
CN1C[C@H](C(=O)N[C@]2(C)O[C@@]3(O)[C@@H]4CCCN4C(=O)[C@H](Cc4ccccc4)N3C2=O)C=C2c3cccc4[nH]cc(c34)C[C@H]21 [ERGOTAMINE]	3.6 L/kg	0.02	4 h	15 mL/min/kg	126 min
O=C([O-])[O-].[Li+].[Li+] [LITHIUM CARBONATE]	0.62 L/kg	1	7.9 h	1.3 mL/min/kg	468 min
NCC[C@H](O)C(=O)N[C@@H]1C[C@H](N)[C@@H](O[C@H]2O[C@H](CN)[C@@H](O)[C@H](O)[C@H]2O)[C@H](O)[C@H]1O[C@H]1O[C@H](CO)[C@@H](O)[C@H](N)[C@H]1O [AMIKACIN]	0.16 L/kg	0.88	2.4 h	1.1 mL/min/kg	144 min
CN(C)[C@@H]1C(O)=C(C(N)=O)C(=O)[C@@]2(O)C(O)=C3C(=O)c4c(O)ccc(Cl)c4[C@@H](O)[C@H]3C[C@@H]12 [DEMECLOCYCLINE]	1.3 L/kg	0.59	17 h	1.1 mL/min/kg	720 min
Oc1ccc2c(c1)[C@@]13CCCC[C@@]1(O)[C@@H](C2)N(CC1CCC1)CC3 [BUTORPHANOL]	12 L/kg	0.17	5.3 h	41 mL/min/kg	288 min
Cc1onc(-c2ccccc2)c1C(=O)N[C@@H]1C(=O)N2[C@@H]1SC(C)(C)[C@@H]2C(=O)O [OXACILLIN]	0.19 L/kg	0.07	0.5 h	6.3 mL/min/kg	42 min
C=C1CC[C@@]2(O)[C@H]3Cc4ccc(O)c5c4[C@@]2(CCN3CC2CC2)[C@H]1O5	8.2 L/kg	0.65	9.1 h	15 mL/min/kg	528 min
CCCn1c(=O)[nH]c(=O)c2[nH]cnc21 [ENPROFYLLINE]	0.63 L/kg	0.55	2.6 h	4 mL/min/kg	108 min
